Measured values: article PMC12028158, “Synthesis and In Vitro Evaluation of the Anticancer Effect of Novel Phosphonium Vindoline Derivatives” (International Journal of Molecular Sciences, 2025)

Tests used:
Type in all cases: cell-based
NCI-H522 [1] = assay: NCI60 five-dose screen; conditions: Homo sapiens; NCI-H522, Non-small Cell Lung Cancer, five-dose; read-out: GI50
Colon Cancer panel = assay: NCI60 five-dose screen, panel mean; conditions: Homo sapiens; mean over Colon Cancer panel; read-out: Mean GI50
SN12C = assay: NCI60 one-dose screen; conditions: Homo sapiens, 10 μM, one-dose, read-out: Growth percent
NCI/ADR-RES = assay: NCI60 one-dose screen; conditions: Homo sapiens, 10 μM, one-dose, read-out: Growth percent
MDA-MB-468 [2] = assay: NCI60 five-dose screen; conditions: Homo sapiens, MDA-MB-468, MDA-MB-468, Breast Cancer, five-dose; read-out: GI50
CCRF-CEM = assay: NCI60 five-dose screen; conditions: Homo sapiens, Leukemia, five-dose, read-out: GI50
OVCAR-8 = assay: NCI60 five-dose screen; conditions: Homo sapiens; OVCAR-8, Ovarian Cancer, five-dose; read-out: GI50
DU-145 = assay: NCI60 one-dose screen; conditions: Homo sapiens; DU-145, 10 μM, one-dose; read-out: Growth percent
M14 [3] = assay: NCI60 five-dose screen; conditions: Homo sapiens; M14, Melanoma, five-dose; read-out: GI50
OVCAR-5 = assay: NCI60 five-dose screen; conditions: Homo sapiens; OVCAR-5, Ovarian Cancer, five-dose; read-out: GI50
TK-10 [4] = assay: NCI60 five-dose screen; conditions: Homo sapiens; TK-10, Renal Cancer, five-dose; read-out: GI50
SR = assay: NCI60 one-dose screen; conditions: Homo sapiens, 10 μM, one-dose, read-out: Growth percent
UACC-62 = assay: NCI60 five-dose screen; conditions: Homo sapiens; UACC-62, Melanoma, five-dose; read-out: GI50
Prostate Cancer panel = assay: NCI60 five-dose screen, panel mean; conditions: Homo sapiens; mean over Prostate Cancer panel; read-out: Mean GI50
A549/ATCC = assay: NCI60 five-dose screen; conditions: Homo sapiens; A549/ATCC, Non-small Cell Lung Cancer, five-dose; read-out: GI50
HT29 = assay: NCI60 five-dose screen; conditions: Homo sapiens, HT-29; HT29, Colon Cancer, five-dose; read-out: GI50
MCF7 = assay: NCI60 one-dose screen; conditions: Homo sapiens; MCF7, 10 μM, one-dose; read-out: Growth percent
SNB-19 = assay: NCI60 five-dose screen; conditions: Homo sapiens, SNB-19, SNB-19, CNS Cancer, five-dose; read-out: GI50
U251 [5] = assay: NCI60 five-dose screen; conditions: Homo sapiens, U-251, U251, CNS Cancer, five-dose; read-out: GI50
HCC-2998 = assay: NCI60 one-dose screen; conditions: Homo sapiens; HCC-2998, 10 μM, one-dose; read-out: Growth percent
SF-295 [6] = assay: NCI60 one-dose screen; conditions: Homo sapiens; SF-295, 10 μM, one-dose; read-out: Growth percent
IGROV1 [7] = assay: NCI60 five-dose screen; conditions: Homo sapiens, IGROV-1; IGROV1, Ovarian Cancer, five-dose; read-out: GI50
SK-MEL-5 = assay: NCI60 one-dose screen; conditions: Homo sapiens; SK-MEL-5, 10 μM, one-dose; read-out: Growth percent
NCI-H522 [8] = assay: NCI60 one-dose screen; conditions: Homo sapiens; NCI-H522, 10 μM, one-dose; read-out: Growth percent
SK-OV-3 = assay: NCI60 one-dose screen; conditions: Homo sapiens; SK-OV-3, 10 μM, one-dose; read-out: Growth percent
A498 [9] = assay: NCI60 one-dose screen; conditions: Homo sapiens; A498, 10 μM, one-dose; read-out: Growth percent
MOLT-4 = assay: NCI60 five-dose screen; conditions: Homo sapiens; MOLT-4, Leukemia, five-dose; read-out: GI50
M14 [10] = assay: NCI60 one-dose screen; conditions: Homo sapiens; M14, 10 μM, one-dose; read-out: Growth percent
MDA-MB-231/ATCC = assay: NCI60 one-dose screen; conditions: Homo sapiens; MDA-MB-231/ATCC, 10 μM, one-dose; read-out: Growth percent
U251 [11] = assay: NCI60 one-dose screen; conditions: Homo sapiens, U-251; U251, 10 μM, one-dose; read-out: Growth percent
NCI-H460 = assay: NCI60 one-dose screen; conditions: Homo sapiens; NCI-H460, 10 μM, one-dose; read-out: Growth percent
MDA-MB-435 = assay: NCI60 one-dose screen; conditions: Homo sapiens; MDA-MB-435, 10 μM, one-dose; read-out: Growth percent
T-47D = assay: NCI60 five-dose screen; conditions: Homo sapiens, T47D; T-47D, Breast Cancer, five-dose; read-out: GI50
ACHN [12] = assay: NCI60 five-dose screen; conditions: Homo sapiens, Renal Cancer, five-dose, read-out: GI50
A498 [13] = assay: NCI60 five-dose screen; conditions: Homo sapiens; A498, Renal Cancer, five-dose; read-out: GI50
HCT-116 = assay: NCI60 five-dose screen; conditions: Homo sapiens; HCT-116, Colon Cancer, five-dose; read-out: GI50
MDA-MB-468 [14] = assay: NCI60 one-dose screen; conditions: Homo sapiens; MDA-MB-468, 10 μM, one-dose; read-out: Growth percent
TK-10 [15] = assay: NCI60 one-dose screen; conditions: Homo sapiens; TK-10, 10 μM, one-dose; read-out: Growth percent
NCI-H226 = assay: NCI60 five-dose screen; conditions: Homo sapiens; NCI-H226, Non-small Cell Lung Cancer, five-dose; read-out: GI50
HOP-92 = assay: NCI60 five-dose screen; conditions: Homo sapiens; HOP-92, Non-small Cell Lung Cancer, five-dose; read-out: GI50
HS 578T = assay: NCI60 one-dose screen; conditions: Homo sapiens; HS 578T, 10 μM, one-dose; read-out: Growth percent
ACHN [16] = assay: NCI60 one-dose screen; conditions: Homo sapiens, 10 μM, one-dose, read-out: Growth percent
786-0 = assay: NCI60 one-dose screen; conditions: Homo sapiens; 786-0, 10 μM, one-dose; read-out: Growth percent
SF-295 [17] = assay: NCI60 five-dose screen; conditions: Homo sapiens; SF-295, CNS Cancer, five-dose; read-out: GI50
EKVX = assay: NCI60 five-dose screen; conditions: Homo sapiens, Non-small Cell Lung Cancer, five-dose, read-out: GI50
SF-268 = assay: NCI60 one-dose screen; conditions: Homo sapiens; SF-268, 10 μM, one-dose; read-out: Growth percent
IGROV1 [18] = assay: NCI60 one-dose screen; conditions: Homo sapiens, IGROV-1; IGROV1, 10 μM, one-dose; read-out: Growth percent

Compound `CC[C@]12C=CCN3CC[C@@]4(c5ccc(OC)cc5N(C)[C@H]4[C@@](O)(C(=O)OC)[C@@H]1OC(=O)CCC[P+](c1ccccc1)(c1ccccc1)c1ccccc1)[C@@H]32` [compound 3, reference compound] has a GI50 (NCI-H522 [1]) of 216 nM, a GI50 (Colon Cancer panel) of 1690 nM and an activity at 10 µM (SN12C) of 2.73%. The activity at 10 µM (NCI/ADR-RES) was 100%, the GI50 (MDA-MB-468 [2]) was 126 nM and the GI50 (CCRF-CEM) was 487 nM. For the same compound, the GI50 (OVCAR-8) was 1270 nM, the activity at 10 µM (DU-145) was 18% and the GI50 (M14 [3]) was 790 nM. For the same compound, the GI50 (OVCAR-5) was 1200 nM, the GI50 (TK-10 [4]) was 1480 nM and the activity at 10 µM (SR) was 9.57%. The GI50 (UACC-62) was 222 nM, the GI50 (Prostate Cancer panel) was 640 nM and the GI50 (A549/ATCC) was 1350 nM. The GI50 (HT29) was 266 nM, the activity at 10 µM (MCF7) was -3.34% and the GI50 (SNB-19) was 334 nM. The GI50 (U251 [5]) was 371 nM, the activity at 10 µM (HCC-2998) was -22.5% and the activity at 10 µM (SF-295 [6]) was 23.3%. For the same compound, the GI50 (IGROV1 [7]) was 237 nM, the activity at 10 µM (SK-MEL-5) was -91.5% and the activity at 10 µM (NCI-H522 [8]) was -35.4%. It also gave an activity at 10 µM (SK-OV-3) of -21%, an activity at 10 µM (A498 [9]) of 124% and a GI50 (MOLT-4) of 614 nM. The activity at 10 µM (M14 [10]) was 17.7%, the activity at 10 µM (MDA-MB-231/ATCC) was 1.29% and the activity at 10 µM (U251 [11]) was 4.03%. The activity at 10 µM (NCI-H460) was 6.11%, the activity at 10 µM (MDA-MB-435) was -21.6% and the GI50 (T-47D) was 192 nM. The GI50 (ACHN [12]) was 4530 nM, the GI50 (A498 [13]) was 1710 nM and the GI50 (HCT-116) was 965 nM. The activity at 10 µM (MDA-MB-468 [14]) was -75.6%, the activity at 10 µM (TK-10 [15]) was 22.3% and the GI50 (NCI-H226) was 2040 nM. The GI50 (HOP-92) was 66 nM, the activity at 10 µM (HS 578T) was 25.5% and the activity at 10 µM (ACHN [16]) was 89.9%. The activity at 10 µM (786-0) was 20.6%, the GI50 (SF-295 [17]) was 1450 nM and the GI50 (EKVX) was 470 nM. It also gave an activity at 10 µM (SF-268) of 19.2% and an activity at 10 µM (IGROV1 [18]) of -0.06%.
